Data taken from patent US20240016772A1, “Compositions And Methods Comprising D-Cysteine Or A D-Derivative Thereof” (UNIVERSITE DE GENEVE, priority 2020, published 2024).
Entries after “also recorded” stand apart in the source; their conditions may differ.

What was measured:
[1] = tested on: LuCa62 lung adenocarcinoma cells; assay: Colony formation / spheroid formation assay, LuCa62; format: cell-based, human; conditions: colony formation (0.1 mM, 2 weeks) or spheroids (0.1, 0.2 or 0.5 mM, 17 days)
Method: FIGS. 4A-4D: D-cysteine affects tumor cell viability. Colony formation assays in presence or absence 0.1 mM D-cysteine (D-Cys) for 2 weeks. FIG. 4A: Lung tumor cell lines+cervix cell line (HeLa). FIG. 4B: MPM cell lines. FIG. 4C: A549. FIG. 4D: LuCa62 spheroid formation in presence or absence of 0.1 mM, 0.2 mM or 0.5 mM D-cysteine for 17 days.
(§1) We therefore decided to test whether the D-cysteine-mediated inhibition of OCR could affect cell growth in a regular normal medium complemented with fetal calf serum. Most culture media used for cell culture contain 300 μM L-cystine. […] Importantly, some cancer cell lines, including HeLa cells (FIG. 4A), the MPM cell line H2052/484 (FIG. 4B), and osteosarcoma cell line 143B (not shown), were insensitive both in 2D cultures or in colony formation assays. The decrease in numbers of cells seen after 72 h exposure to D-cysteine was due to decreased cell proliferation. […] Importantly, in contrast to the results with cancer cells, normal human bronchial epithelial BEAS-2B cells were resistant to D-cysteine exposure even at very high concentration (FIG. 5B).

[2] = tested on: MDA-MB-231 triple-negative breast cancer cells; assay: Colony formation / proliferation, MDA-MB-231; format: cell-based; conditions: colony formation assays or spheroids
Method: as §1

A375 melanoma cells = assay: Colony formation / proliferation, A375; format: cell-based; conditions: colony formation assays or spheroids
Method: as §1

[3] = tested on: osteosarcoma cell line 143B; assay: 2D culture / colony formation, 143B; format: cell-based; conditions: 2D cultures or colony formation assays; not shown
Method: as §1

A549 cells [4] = assay: Oxidized (GSSG) and total (GSH) glutathione levels in A549 cells; format: cell-based, human; conditions: 500 μM, 72 h
Method: (§2) A549 cells were cultured for 72 h in complete medium (CM) with or without 500 μM D-cysteine (D-Cys) and different cellular characteristics were analyzed. FIG. 8A: Oxidized (GSSG) and total (GSH) glutathione levels. FIG. 8B: Mitochondrial ROS production by MitoSOX staining. FIG. 8C: Lipid peroxidation by Bodipy C11 staining. MFI=Mean of Fluorescence Intensity (Flow cytometry). * P<0.05.
(§3) We first tested whether D-cysteine could trigger ferroptosis. Ferroptosis is a type of death due to iron-mediated ROS production and lipid peroxidation. In most cases, it is triggered by decreased glutathione levels.

A549 cells [5] = assay: Mitochondrial ROS production by MitoSOX staining; format: cell-based, human; conditions: 500 μM, 72 h
Method: as §2, §3

A549 cells [6] = assay: Lipid peroxidation by Bodipy C11 staining; format: cell-based, human; conditions: 500 μM, 72 h
Method: as §2, §3

A549 cells [7] = assay: Proteome analysis (LC-MS/MS with TMT) of A549 cells exposed to D-cysteine; format: cell-based, human; conditions: 500 μM, 72 h, FDR<0.01
Method: To understand how D-cysteine modifies protein expression, A549 cells were grown in the presence of D-cysteine for 3 days and total cellular proteins were compared to control cells grown in parallel in the presence of L-cysteine. For these experiments liquid chromatography-tandem mass spectrometry (LC-MS/MS) coupled with tandem mass tagging (TMT) was employed, a procedure which enables simultaneous protein identification and relative quantification of two different samples in the same proteomics experiment.
Proteome analysis of A549 cells cultured in the absence or presence of 500 μM D-cysteine for 72 h. […] FC=Fold change.

[8] = D-cysteine quantification in blood (serum) of mice after gavage; format: in vivo; conditions: 500 mg/kg by gavage, no DAAO inhibitor, data not shown
Method: As described below, we have initiated experiments in which we administer D-cysteine (500 mg/kg) by gavage, and using the technique described in^37, we have measured the levels of D-cysteine in serum. […] We reasoned that the enzyme D amino oxidase (DAAO), which is known to oxidize D-amino acids and which in mice is highly expressed in the kidney, could explain the rapid clearance of D-cysteine from the blood. We therefore co-administered D-cysteine with an inhibitor of DAAO (JHU 1377). Using this protocol, we achieved higher levels of D-cysteine in the blood (Table 2) and indeed levels higher than that needed to repress tumor cell growth in vitro. Thus far we have only assessed the pharmacokinetics of D-cysteine during the first 6 h following administration. In future experiments we plan to repeat the analysis over longer time periods.
DAAO inhibitor JHU 1377 (30 mg/kg) was injected into mice, followed 2 h later by D-cysteine gavage (500 mg/kg). Blood was collected after 2, 4, and 6 h and levels of L- and D-cysteine were quantified in the serum.

A549 lung cancer cells = assay: Proliferation of A549 cells with D-cysteine and 3-MST inhibitor HMPSNE; format: cell-based, human; conditions: D-cysteine 100 μM and/or HMPSNE
Method: (§4) A549 lung tumor cells (FIG. 10A) or MDA-MB-231 breast tumor cells (FIG. 10B) were cultured in complete media (CM) in the absence or presence of 100 μM D-cysteine (D-Cys), with (grey bars) or without (black bars) HMPSNE, a cell-membrane permeable inhibitor of 3-MST. Cell numbers were counted after 72 hours. * P<0.05, ** P<0.01, *** P<0.001, **** P<0.0001.
(§5) Furthermore, as mentioned above, it exerts toxic effects via iron chelation. Therefore, to survive D cysteine, cells need to increase its catabolism. There are two main pathways for cysteine catabolism: one is via its enzymatic breakdown to produce hydrogen sulfur and organic intermediates that will serve as carbon sources, and the second is via oxidative metabolism through cysteine dioxygenase 48. Inhibition of cysteine catabolism can be obtained with inhibitors of the key enzymes participating in this pathway. We have used a commercially available inhibitor of 3-MST, HMPSNE 49 to inhibit the enzyme in A549 lung cancer cells and in MDA-MB-231 breast cancer cells in the presence or absence of D cysteine.

[9] = tested on: MDA-MB-231 breast cancer cells; assay: Proliferation of MDA-MB-231 cells with D-cysteine and 3-MST inhibitor HMPSNE; format: cell-based; conditions: D-cysteine 100 μM and/or HMPSNE
Method: as §4, §5

[10] = rat; 500 mg/kg daily by gavage for one month; cited from earlier work

N[C@H](CS)C(=O)O [D-cysteine]
antiproliferative effect, LuCa62 [1]: antiproliferative effect
antiproliferative effect, MDA-MB-231 [2]: antiproliferative effect
antiproliferative effect, A375 (A375 melanoma cells): antiproliferative effect
sensitivity of osteosarcoma cell line 143B [3]: insensitive
glutathione levels (A549 cells [4]): did not induce a drop in glutathione
mitochondrial ROS production (A549 cells [5]): induced ROS production; also recorded: induces an increase
lipid peroxidation (A549 cells [6]): induced; also recorded: induces an increase
FC (log2) CIAO1 protein (A549 cells [7]): −1.179 log2
FC (log2) COX4I1 protein (A549 cells [7]): −0.6951 log2
FC (log2) MT-CO3 protein (A549 cells [7]): −1.538 log2
FC (log2) MT-ND4 protein (A549 cells [7]): −1.86 log2
FC (log2) NDUFA4 protein (A549 cells [7]): −0.5939 log2
FC (log2) NDUFA5 protein (A549 cells [7]): −0.8033 log2
FC (log2) NDUFA7 protein (A549 cells [7]): −1.584 log2
FC (log2) NDUFA9 protein (A549 cells [7]): −0.5906 log2
FC (log2) NDUFA10 protein (A549 cells [7]): −0.8723 log2
FC (log2) NDUFA12 protein (A549 cells [7]): −0.6836 log2
FC (log2) NDUFS1 protein (A549 cells [7]): −1.133 log2
FC (log2) NDUFS4 protein (A549 cells [7]): −0.9309 log2
FC (log2) NDUFS7 protein (A549 cells [7]): −0.8355 log2
FC (log2) NDUFS8 protein (A549 cells [7]): −0.8273 log2
FC (log2) NDUFV1 protein (A549 cells [7]): −1.064 log2
FC (log2) NDUFV2 protein (A549 cells [7]): −0.7451 log2
FC (log2) SDHB protein (A549 cells [7]): −1.214 log2
initial level of D-cysteine in the blood [8]: around 200 μM
concentration at 2 h ([8]; mouse, serum, oral, read-out: level of D-cysteine in the blood within the first 2 h): 5 µM
cell proliferation (cell numbers after 72 hours), A549 (A549 lung cancer cells): did not significantly alter the growth
cell proliferation (cell numbers after 72 hours), MDA-MB-231 [9]: did not significantly alter the growth
adverse effect on the animals [10]: no adverse effect
